Assay results published in ChEMBL document CHEMBL1142949, “Dicarba analogues of the cyclic enkephalin peptides H-Tyr-c[D-Cys-Gly-Phe-D(or L)-Cys]NH(2) retain high opioid activity” (J Med Chem, 2007).

Key:
[1] = biological target: Delta-type opioid receptor (Rattus norvegicus, UniProt P33533); test: Displacement of [3H]DSLET from rat brain delta opioid receptor
[2] = biological target: Mu-type opioid receptor (Rattus norvegicus, UniProt P33535); test: Displacement of [3H]DAMGO from rat brain mu opioid receptor
[3] = biological target: Delta-type opioid receptor (Mus musculus, UniProt P32300); test: Agonist activity at delta opioid receptor in mouse vas deferens; format: functional, tissue-based
[4] = biological target: Kappa-type opioid receptor (Cavia porcellus, UniProt P41144); test: Displacement of [3H]U-69593 from guinea pig brain kappa opioid receptor
[5] = biological target: Mu-type opioid receptor (Cavia porcellus, UniProt P97266); test: Agonist activity at mu opioid receptor in guinea pig ileum; format: functional, tissue-based
[6] = test system: Brain; test: Stability in rat brain membrane after 40 mins assessed as degradation by disulfide reductases; format: ADME, cell membranes
[7] = test system: Brain; test: Stability in rat brain membrane upto 24 hrs assessed as degradation by disulfide reductases; format: ADME, cell membranes

Chain of Delta-type opioid receptor (Mus musculus, UniProt P32300) (P32300 whole entry): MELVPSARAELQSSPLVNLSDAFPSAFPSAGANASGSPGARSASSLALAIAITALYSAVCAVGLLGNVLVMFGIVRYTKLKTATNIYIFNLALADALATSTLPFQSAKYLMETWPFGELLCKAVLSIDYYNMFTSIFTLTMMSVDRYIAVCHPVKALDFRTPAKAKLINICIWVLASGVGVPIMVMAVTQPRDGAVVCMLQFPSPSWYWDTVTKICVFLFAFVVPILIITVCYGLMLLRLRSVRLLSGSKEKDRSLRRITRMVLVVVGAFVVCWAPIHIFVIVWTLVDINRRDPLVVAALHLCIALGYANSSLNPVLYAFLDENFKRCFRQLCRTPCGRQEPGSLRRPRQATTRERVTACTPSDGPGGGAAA
Chain of Mu-type opioid receptor (Rattus norvegicus, UniProt P33535) (P33535 whole entry): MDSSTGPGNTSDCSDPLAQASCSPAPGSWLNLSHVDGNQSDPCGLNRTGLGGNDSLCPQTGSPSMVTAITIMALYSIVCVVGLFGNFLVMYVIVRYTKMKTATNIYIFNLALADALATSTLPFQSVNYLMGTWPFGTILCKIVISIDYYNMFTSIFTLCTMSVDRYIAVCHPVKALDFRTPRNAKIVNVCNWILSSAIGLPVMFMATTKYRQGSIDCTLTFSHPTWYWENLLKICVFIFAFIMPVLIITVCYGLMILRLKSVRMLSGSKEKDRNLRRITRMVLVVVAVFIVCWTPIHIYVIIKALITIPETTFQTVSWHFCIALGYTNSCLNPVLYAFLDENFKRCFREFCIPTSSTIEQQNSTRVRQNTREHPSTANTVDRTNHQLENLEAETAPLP
Chain of Delta-type opioid receptor (Rattus norvegicus, UniProt P33533) (P33533 whole entry): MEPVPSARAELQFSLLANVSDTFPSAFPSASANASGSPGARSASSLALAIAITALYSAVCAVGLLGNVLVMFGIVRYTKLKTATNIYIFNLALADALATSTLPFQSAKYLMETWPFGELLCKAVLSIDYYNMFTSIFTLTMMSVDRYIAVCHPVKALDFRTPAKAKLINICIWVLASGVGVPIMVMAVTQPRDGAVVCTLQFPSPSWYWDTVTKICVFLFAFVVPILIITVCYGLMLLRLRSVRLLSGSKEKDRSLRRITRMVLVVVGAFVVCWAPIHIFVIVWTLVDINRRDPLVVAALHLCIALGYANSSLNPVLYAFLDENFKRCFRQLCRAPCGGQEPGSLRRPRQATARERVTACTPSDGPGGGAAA
Chain of Kappa-type opioid receptor (P41144 whole entry): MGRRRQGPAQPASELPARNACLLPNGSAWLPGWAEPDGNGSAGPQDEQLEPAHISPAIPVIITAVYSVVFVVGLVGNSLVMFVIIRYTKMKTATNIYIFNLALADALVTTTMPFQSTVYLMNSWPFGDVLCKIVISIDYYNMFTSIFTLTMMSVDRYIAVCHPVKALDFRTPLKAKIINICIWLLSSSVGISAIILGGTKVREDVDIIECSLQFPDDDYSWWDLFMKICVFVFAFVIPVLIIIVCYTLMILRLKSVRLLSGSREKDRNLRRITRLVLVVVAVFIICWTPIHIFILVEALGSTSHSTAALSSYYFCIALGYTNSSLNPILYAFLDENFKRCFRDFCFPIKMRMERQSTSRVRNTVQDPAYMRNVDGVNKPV
Chain of Mu-type opioid receptor (Cavia porcellus, UniProt P97266) (P97266 whole entry): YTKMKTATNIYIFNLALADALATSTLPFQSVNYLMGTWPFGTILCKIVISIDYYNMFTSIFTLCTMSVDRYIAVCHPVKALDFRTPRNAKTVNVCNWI

Work on `NC(=O)[C@H]1C/C=C/C[C@@H](NC(=O)[C@@H](N)Cc2ccc(O)cc2)C(=O)NCC(=O)N[C@@H](Cc2ccccc2)C(=O)N1` yielded a Ki [1] of 1.92 nM, a Ki [2] of 1.05 nM and an IC50 [3] of 4.38 nM. It also gave a Ki [4] of 30.4 nM and an IC50 [5] of 5.63 nM.

For `NC(=O)[C@@H]1C/C=C\C[C@@H](NC(=O)[C@@H](N)Cc2ccc(O)cc2)C(=O)NCC(=O)N[C@@H](Cc2ccccc2)C(=O)N1`, the Ki [1] was 6.55 nM, the Activity [6] was “Not Active” and the Ki [2] was 2.4 nM. The IC50 [3] was 0.496 nM, the Ki [4] was 200 nM and the IC50 [5] was 1.81 nM.

For `NC(=O)[C@H]1CCCC[C@@H](NC(=O)[C@@H](N)Cc2ccc(O)cc2)C(=O)NCC(=O)N[C@@H](Cc2ccccc2)C(=O)N1`, the Ki [1] was 3.34 nM, the Ki [2] was 1.17 nM and the IC50 [3] was 3.64 nM. For the same molecule, the Ki [4] was 71.5 nM and the IC50 [5] was 11.2 nM.

`NC(=O)[C@@H]1C/C=C/C[C@@H](NC(=O)[C@@H](N)Cc2ccc(O)cc2)C(=O)NCC(=O)N[C@@H](Cc2ccccc2)C(=O)N1` was tested, and the Ki [1] was 1.25 nM, the Activity [6] was “Not Active” and the Ki [2] was 0.616 nM. The IC50 [3] was 0.275 nM, the Ki [4] was 57.6 nM and the IC50 [5] was 0.898 nM.

In the case of `NC(=O)[C@@H]1CSSC[C@@H](NC(=O)[C@@H](N)Cc2ccc(O)cc2)C(=O)NCC(=O)N[C@@H](Cc2ccccc2)C(=O)N1`, the Activity [6] is reported as “Not Active”, the Ki [4] is reported as 40.1 nM and the Stability [7] is reported as “Stable”.

`NC(=O)[C@H]1C/C=C\C[C@@H](NC(=O)[C@@H](N)Cc2ccc(O)cc2)C(=O)NCC(=O)N[C@@H](Cc2ccccc2)C(=O)N1` was tested, and the Ki [1] was 7.04 nM, the Ki [2] was 2.27 nM and the IC50 [3] was 9.91 nM. For the same molecule, the Ki [4] was 498 nM and the IC50 [5] was 11.9 nM.

In the case of `NC(=O)[C@@H]1CCCC[C@@H](NC(=O)[C@@H](N)Cc2ccc(O)cc2)C(=O)NCC(=O)N[C@@H](Cc2ccccc2)C(=O)N1`, the Ki [1] is reported as 5.87 nM, the Activity [6] is reported as “Not Active” and the Ki [2] is reported as 2.34 nM. The IC50 [3] was 3.19 nM, the Ki [4] was 309 nM and the IC50 [5] was 1.02 nM.
